One test has as its target T1, RDH10 (Mus musculus, UniProt Q8VCH7).
T1 construct: Take approximately 50 mg of liver tissue from C57BL/6J mice and add 1 mL of RIPA lysis buffer; from tissue; host or cells: mouse liver (C57BL/6J) lysate
T1 sequence (Q8VCH7 1-341): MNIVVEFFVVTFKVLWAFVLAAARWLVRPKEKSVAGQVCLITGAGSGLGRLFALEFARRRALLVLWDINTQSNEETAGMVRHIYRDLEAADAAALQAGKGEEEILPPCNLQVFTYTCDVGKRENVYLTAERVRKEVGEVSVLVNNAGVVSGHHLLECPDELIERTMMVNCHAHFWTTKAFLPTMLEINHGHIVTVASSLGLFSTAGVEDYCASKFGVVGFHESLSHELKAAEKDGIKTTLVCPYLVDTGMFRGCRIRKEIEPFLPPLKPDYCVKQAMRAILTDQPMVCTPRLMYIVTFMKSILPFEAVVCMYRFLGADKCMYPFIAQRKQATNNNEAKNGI
The test can be described thus: Protein fishing (pull-down) with molecular probe and proteomics analysis. The format is binding, C57BL/6J mice. As to the method: • 1. Preparation of Liver Protein: Take approximately 50 mg of liver tissue from C57BL/6J mice and add 1 mL of RIPA lysis buffer. Lyse the proteins on ice, then centrifuge at 12,000 rpm for 30 minutes at 4° C. Collect the supernatant, measure the protein concentration using BCA method, and dilute to 1 mg/mL with PBS. • 2. Sample Preparation: Prepare new 1.5 mL EP tubes and divide them into control group, drug group, and competitive inhibition group. Add 100 μL of PBS solution containing 40 μM Biotin to the control group, 100 μL of PBS solution containing 40 μM ACS-biotin (prepared in Example 1) to the drug group, and 100 μL of PBS solution containing 40 μM ACS-biotin and 400 μM ACS to the competitive inhibition group. Then, add 100 μL of liver protein lysate (1 mg/mL) to each tube and incubate on a shaking incubator at 4° C. for 2 hours. • 3. Washing Streptavidin Beads: Add 100 μL of streptavidin beads to new 1.5 mL EP tubes and centrifuge at 2,700 rpm for 1 minute. Discard the supernatant and wash the beads with 100 μL of PBS three times. • 4. Binding and Washing: Add the solutions from step 2 to the washed streptavidin beads. Incubate on a shaking incubator at 4° C. for 2 hours, then centrifuge at 2,700 rpm for 1 minute. Discard the supernatant and wash the beads with 100 μL of PBS three times. • 5. Protein Elution: Add 50 μL of PBS to the beads, mix well, and then add 5×SDS-PAGE sample buffer. Boil for 5 minutes and centrifuge at 13,000 rpm for 5 minutes. Store the supernatant at −20° C. for SDS-PAGE gel electrophoresis. • 6. Protein Detection: Stain with Coomassie Brilliant Blue and cut the gel for proteomics analysis.

Test [1] has as its system FGF21. The test can be described thus: FGF21 gene expression in the liver of MCD mice (qPCR). Particulars: oral 4 weeks, Antcin C 20 and 40 mg/kg, AK-GLU 26.6 mg/kg, compared to DEA 20 mg/kg, FIG. 6. It counts as in vivo, C57BL/6J mice. The protocol:
Four-week-old male C57BL/6J mice were purchased from the Experimental Animal Center, Peking University Health Science Center. The mice were randomly divided into groups, with 10 mice per group. Methionine choline-deficient diet (MCD) was used to induce non-alcoholic steatohepatitis (NASH), forming the MCD model mice. The model mice were treated with an oral administration of drugs for 4 weeks. After the final treatment, the mice were fasted overnight, and then sacrificed. Serum and liver tissues were stored at −80° C., which could be compared with untreated MCD mice (“MCD”) and normal mice (“Nor” or “Normal”). The dosing amounts for each group were as follows: low-dose Antcin C (“AC-L”): 20 mg/kg; high-dose Antcin C (“AC-H”): 40 mg/kg; DEA: 20 mg/kg; AK-GLU: 26.6 mg/kg.
Total RNA Extraction: Liver tissue samples from the mice (10-20 mg) were cut into pieces and added to 1 ml of Tranzol. The mixture was placed on ice and homogenized, then transferred to an RNase-free and DNase-free EP tube. To each tube, 0.2 ml of chloroform was added, and the mixture was vigorously shaken for 15 seconds. After incubation at low temperature for 3 minutes, the mixture was centrifuged at 12000 rpm for 15 minutes at 4° C. The aqueous upper phase was transferred to a new EP tube, and an equal volume of isopropanol was added. […] RNA concentration was measured using a spectrophotometer with an A260/280 ratio. […]
Background: In qPCR the cycle at which signal appears reflects the starting amount.

Test [2] concerns non-alcoholic steatohepatitis (NASH) in MCD mice. The test can be described thus: Serum ALT in MCD mice (NASH model), Example 6. Particulars: oral 4 weeks, Antcin K 20 mg/kg, Antcin C 20 and 40 mg/kg, AK-GLU 26.6 mg/kg, better than obeticholic acid 10 mg/kg and DEA 20 mg/kg, FIG. 8. It counts as in vivo, C57BL/6J mice. As to the method:
(§1) The MCD mouse model and drug administration method were the same as in Example 4. After the final treatment, the mice were sacrificed, and the liver tissue samples were fixed overnight in 4% paraformaldehyde, embedded in paraffin, and sectioned. The sections were stained with hematoxylin and eosin (H&E) according to the following procedure: immerse the sections in the following solutions sequentially: xylene (I) for 15 minutes, xylene (II) for 15 minutes, 50% xylene-absolute ethanol for 2 minutes, absolute ethanol (I) for 5 minutes, absolute ethanol (II) for 5 minutes, 80% ethanol for 5 minutes, distilled water for 5 minutes, hematoxylin staining solution for 5 minutes, rinse with running water for 5 minutes, 1% hydrochloric acid ethanol for 30 seconds, rinse with water for 30 seconds, wash with distilled water for 5 seconds, 0.5% eosin staining solution for 2 minutes, rinse with distilled water for 30 seconds, 80% ethanol for 30 seconds, 95% ethanol (I) for 1 minute, 95% ethanol (II) for 1 minute, absolute ethanol (I) for 3 minutes, absolute ethanol (II) for 3 minutes, xylene (I) for 3 minutes, xylene (II) for 3 minutes, and mount with neutral resin.
(§2) The treated groups were compared with untreated MCD mice (“MCD”) and normal mice (“Nor”). The drug administration doses were as follows: positive control obeticholic acid (OCA): 10 mg/kg; Antcin K (AK): 20 mg/kg; low-dose Antcin C (AC-L): 20 mg/kg; high-dose Antcin C (AC-H): 40 mg/kg; DEA: 20 mg/kg; AK-GLU: 26.6 mg/kg.
After the final treatment, the mice were fasted overnight, sacrificed, and blood was collected from the eye vein. The whole blood was allowed to stand for 2 hours, centrifuged at 6000 rpm for 10 minutes, and the serum was obtained.

For test [3] the test system is unchanged. The test can be described thus: Pathological (H&E) staining of liver sections from MCD mice, Example 6. The format is in vivo, C57BL/6J mice. The settings on record: oral 4 weeks, Antcin K 20 mg/kg, Antcin C 20 and 40 mg/kg, AK-GLU 26.6 mg/kg, better than obeticholic acid and DEA, FIG. 9. As to the method: as §1, §2
Test [4] deals with FGF21. The test can be described thus: Serum FGF21 protein in MCD mice (ELISA). It counts as in vivo, C57BL/6J mice. The settings on record: oral 4 weeks, Antcin K 20 mg/kg, Antcin C 20 and 40 mg/kg, AK-GLU 26.6 mg/kg, compared to DEA, FIG. 10. As to the method: The modeling and treatment of MCD mice were conducted as described in Example 4. The treated groups were compared with untreated MCD mice (“MCD”) and normal mice (“Nor”). The dosages for each treatment group were as follows: positive control obeticholic acid (“OCA”): 10 mg/kg; Antcin K (“AK”): 20 mg/kg; low-dose Antcin C (“AC-L”): 20 mg/kg; high-dose Antcin C (“AC-H”): 40 mg/kg; DEA: 20 mg/kg; AK-GLU: 26.6 mg/kg.
The serum sampling method from mice was the same as in Example 6. The FGF21 levels were tested using an ELISA kit (Beyotime), with the following procedure: The microplate was equilibrated at room temperature for 20 minutes. Then, 50 μL of serum samples or different concentrations of standards were added to each well. Next, 100 μL of HRP-conjugated detection antibody was added, and the plate was covered with a sealing film and incubated at 37° C. for 60 minutes. The liquid was discarded, and the plate was dried with absorbent paper. Each well was then washed with 350 μL of washing buffer, left for 1 minute, and the liquid was discarded and dried with absorbent paper. This washing step was repeated 5 times. Then, 50 μL of Substrate A and 50 μL of Substrate B were added to each well and incubated at 37° C. in the dark for 15 minutes. After that, 50 μL of stop solution was added to each well, and the absorbance at 450 nm was measured within 15 minutes. A standard curve was plotted with the absorbance of the standards on the vertical axis and the standard concentrations on the horizontal axis. The serum sample absorbance values were used to determine the FGF21 protein concentrations based on this standard curve.
In general terms: ELISA stands for enzyme-linked immunosorbent assay.

The subject of test [5] is FGF21. The experiment in a line: FGF21 protein expression in the liver of MCD mice (Western blot). The format is in vivo, C57BL/6J mice. The settings on record: oral 4 weeks, Antcin K 20 mg/kg, Antcin C 20 and 40 mg/kg, compared to DEA 20 mg/kg, FIG. 7. The protocol:
The modeling and procedures for MCD mice are as described in Example 4. Comparisons were made between the treated groups and untreated MCD mice (“MCD”) and normal mice (“Normal”). The dosing for each treatment group was as follows: positive drug obeticholic acid (“OCA”): 10 mg/kg; Antcin K (“AK”): 20 mg/kg; low-dose Antcin C (“AC-L”): 20 mg/kg; high-dose Antcin C (“AC-H”): 40 mg/kg; DEA: 20 mg/kg.
Liver tissue (15-20 mg) was homogenized in RIPA lysis buffer on ice, and then centrifuged at 13,000 rpm for 30 minutes at 4° C. The middle layer liquid was transferred to a new centrifuge tube and the protein concentration was measured using BCA method. For each sample, 20 μg of protein was separated by SDS-PAGE and then transferred to a PDVF membrane using Bio-Rad's standard wet transfer system at 200 mA for 60 minutes. Subsequently, the membrane was cut according to protein molecular weight and blocked with 0.5% BSA at room temperature for 60 minutes. The primary antibody was incubated at 4° C. for 14 hours, followed by washing with TBST at room temperature 3 times for 5 minutes each. The secondary antibody was incubated at room temperature for 1 hour, followed by washing with TBST at room temperature 3 times for 10 minutes each. ECL reagent was used for detection.
(In western blotting, separated proteins are transferred to a membrane and probed.)

Test [6] has as its system non-alcoholic steatohepatitis. Particulars: reported; cited from earlier work.

“25S-Antcin C—CO—NH-PEG2-biotin [ACS-biotin]”: the “log2 (ACS-biotin/ACS-biotin+ACS) for RDH10 protein” value on RDH10 (40 μM ACS-biotin vs 40 μM ACS-biotin + 400 μM ACS, FIG. 14C) is > 0. Further, the “log2 (ACS-biotin/Biotin) for RDH10” value at RDH10 (40 μM ACS-biotin vs 40 μM Biotin, mouse liver protein lysate, FIG. 14B) is recorded as > 6.

Regarding `C=C(CC[C@@H](C)[C@H]1CC[C@H]2C3=C(C(=O)C[C@]12C)[C@@]1(C)CC[C@@H](O)[C@](C)(O)[C@@H]1C[C@@H]3O[C@@H]1OC(CO)[C@@H](O)[C@H](O)C1O)C(C)C(=O)O` (stereo partly shown) [AK-GLU, Antcin K-7-O-glucoside], the “gene expression levels of FGF21 in vivo” value with FGF21 [1] was “significantly activated”. The “serum ALT levels” value in test [2] was “significantly reduced”. Besides, the “steatosis and ballooning in the liver” value in test [3] is reported as “significantly reduced”. The “serum FGF21 protein levels” value with FGF21 [4] is “significantly upregulated”.

As for `C=C(CC[C@@H](C)[C@H]1CC[C@H]2C3=C(C(=O)C[C@]12C)[C@@]1(C)CCC(=O)[C@@H](C)[C@@H]1C[C@@H]3O)C(C)C(=O)O` (stereo partly shown) [Antcin C], the “gene expression levels of FGF21 in vivo” value in the test on FGF21 [1] was “significantly activated”. Also, the “FGF21 protein expression levels in liver” value in the test with FGF21 [5] is on record as “significantly upregulated”. Also, in test [2], the “serum ALT levels” value is given as “significantly reduced”. Besides, the “steatosis and ballooning in the liver” value in test [3] was “significantly reduced”. Moreover, the “serum FGF21 protein levels” value with FGF21 [4] is reported as “significantly upregulated”.

In the case of `C=C(CC[C@@H](C)[C@H]1CC[C@H]2C3=C(C(=O)C[C@]12C)[C@@]1(C)CC[C@@H](O)[C@](C)(O)[C@@H]1C[C@@H]3O)C(C)C(=O)O` (stereo partly shown) [Antcin K], the “FGF21 protein expression levels in liver” value with FGF21 [5] is recorded as “significantly upregulated”. The “serum ALT levels” value in test [2] was “significantly reduced”. Moreover, the “steatosis and ballooning in the liver” value in test [3] is given as “significantly reduced”. The “serum FGF21 protein levels” value in the test with FGF21 [4] was “significantly upregulated”.

Consider `C=C(CC[C@@H](C(=O)O)[C@H]1CC[C@@]2(C)C3=CC[C@H]4C(C)(C)[C@@H](O)CC[C@]4(C)C3=CC[C@]12C)C(C)C` [DEA], for which the “effect in preventing and treating non-alcoholic steatohepatitis” value in test [6] was “relatively weak”.

Source of the values: patent publication US20250195542A1, “METABOLIC DISEASE THERAPEUTIC AGENT OR PREVENTIVE AGENT” (Peking University, priority 2022, published 2025).
